Experimental data published in US10881704B2, “Usage of semen Ziziphi spinosae oil in the treatment of medicinal insomnia” (SHIJIAZHUANG YILING PHARMACEUTICAL CO., LTD., priority 2016, dated 2021).
Read-outs that look alike come from different tables or passages of the source.

Key:
[1] = test system: Kunming mice; experiment: Length of sodium pentobarbital-induced sleep of mice with medicinal insomnia (ephedrine, prednisone); type: in vivo; details: sodium pentobarbital 50 mg/kg ip
Procedure: Kunming mice, male, 18-22 g in weight;
60 mice were taken and placed into the laboratory for one week for acclimatization. Then they were randomly divided into 6 groups and dosed according to the drug and dosage in the table.
The investigational drug and insomnia-induced drugs were proportionally prepared into soybean oil solutions as investigational products, which were administered with via intragastric gavage with the intragastric volume calculated by 0.1 mL per 10 g body weight. The blank group was directly given soybean oil via intragastric gavage once daily, for consecutive 7 days. Mice were fasted at 8 h prior to the last dosing and given sodium pentobarbital (50 mg/kg) via intraperitoneal injection at 30 min after dosing, at the indoor temperature of 20° C. and the humidity of 40%. Measurements were made by using the righting reflex tester, the absence of righting reflex over 1 min was deemed as falling asleep, and the absence time and recovery time of righting reflex were observed and recorded. The duration from the absence of righting reflex to its recovery was the length of sleep.

[2] = GC fingerprint: study on the sample stability; type: physicochemical; details: Semen Ziziphi Spinosae oil sample 2 test solution; for Relative peak area, RSD (%) / Relative retention time, RSD (%): RSD over 0-12 h; for Relative peak area, Mean / Relative retention time, Mean: mean over 0-12 h; for Relative peak area, standing time 0 / Relative retention time, standing time 0: tested at 0 h; for Relative peak area, standing time 0 / Relative retention time, standing time 0 / Relative peak area, standing time 3 / Relative retention time, standing time 3 / Relative peak area, standing time 6 / Relative retention time, standing time 6 / Relative peak area, standing time 9 / Relative retention time, standing time 9 / Relative peak area, standing time 12 / Relative retention time, standing time 12: GC; for Relative peak area, standing time 3 / Relative retention time, standing time 3: tested at 3 h; for Relative peak area, standing time 6 / Relative retention time, standing time 6: tested at 6 h; for Relative peak area, standing time 9 / Relative retention time, standing time 9: tested at 9 h; for Relative peak area, standing time 12 / Relative retention time, standing time 12: tested at 12 h
Procedure: Take 0.4 g of test sample, place into a 50 mL flask, add 6 mL of sodium hydroxide-methanol solution, and then connect with condenser water bath, and recirculate until the oil drops disappear, and slowly shake the flask every 30 sec to avoid solids formed by sodium hydroxide from being adhered onto the flask wall; recirculate 10 min, add 7 mL of boron trifluoride-methanol solution into the boiled solution through the top of the condenser using a pipette, boil for another 3 min, add 5 mL of isooctane into the boiling mixed solution through the top of the condenser, remove the condenser, take out the flask, add in 20 mL of sodium chloride solution immediately, plug the flask, shake the flask violently for 15 sec, transfer the mixed solution into a 150 mL separatory funnel, rinse the flask with 10 mL of isooctane solution twice (5 mL each time), merge the washing liquid into the separatory funnel, let the funnel stand still to stratify the solution, abandon the subnatant water liquid, place the supernatant isooctane solution into a 25 mL flask, fix the volume using isooctane, add a proper amount of sodium sulfate anhydrous to absorb the trace amount of water in the solution, shake the flask well and put aside for subsequent use.
GC: PerKinElmer Clarus 680
Chromatographic column: Agilent J&W Scientific DB-WAX quartz capillary column ([…]×0.32 mm, 0.25 μm)
Injector temperature: 270° C.,
Precisely draw 1 μL standard solution and 1 μL test solution into the gas chromatograph and conduct the test.
Semen Ziziphi Spinosae oil sample 2 was taken and prepared into test solution according to the preparation method under the item “3. Preparation of test article solution”, and the resulting test solution was tested at different time points (0 h, 3 h, 6 h, 9 h and 12 h) according to the experimental conditions under the item “4. Gas chromatographic conditions”.

[3] = test system: mouse bone marrow cell; details: 60 mg/kg positive control; for Number of Micronucleus-containing PCEs: 5000 PCEs tested
Procedure: The mice were given the samples every 24 h. […] They were executed at 6 h after the last gavage of sample, with the sternal bone marrow taken, prepared into slides, fixed in methanol and stained with Giemsa.
3.4.3 Outcome measure: During the microscopy, 1,000 polychromatic erythrocytes (PCE) were counted for each animal to calculate the micronucleus rate (MN‰).

[4] = test system: mouse sperm; experiment: Mouse sperm malformation test; details: 2.0 mg/kg positive control

SMILES: C[C@]12C=CC(=O)C=C1CC[C@@H]1[C@@H]2C(=O)C[C@@]2(C)[C@H]1CC[C@]2(O)C(=O)CO [Prednisone, prednisone]
- Length of Sleep ([1]; Prednisone 1 mg/kg alone ig 7 days): 68.4 ± 27.1 min

SMILES: CCCCCCCCCCCCCCCCCCCCCC(=O)OC [Peak 11]
- Relative peak area, RSD (%) [2]: 1.65%
- Relative retention time, RSD (%) [2]: 0.08%
- Relative peak area, Mean [2]: 0.020
- Relative retention time, Mean [2]: 1.6532
- Relative peak area, standing time 0 [2]: 0.020
- Relative retention time, standing time 0 [2]: 1.655
- Relative peak area, standing time 3 [2]: 0.021
- Relative retention time, standing time 3 [2]: 1.654
- Relative peak area, standing time 6 [2]: 0.021
- Relative retention time, standing time 6 [2]: 1.653
- Relative peak area, standing time 9 [2]: 0.021
- Relative retention time, standing time 9 [2]: 1.651
- Relative peak area, standing time 12 [2]: 0.021
- Relative retention time, standing time 12 [2]: 1.653

SMILES: CCCCCCCC/C=C\CCCCCCCC(=O)OC [Peak s]
- Relative peak area, RSD (%) [2]: 0.00%
- Relative retention time, RSD (%) [2]: 0.00%
- Relative peak area, Mean [2]: 1.000
- Relative retention time, Mean [2]: 1.0000
- Relative peak area, standing time 0 [2]: 1.000
- Relative retention time, standing time 0 [2]: 1.000
- Relative peak area, standing time 3 [2]: 1.000
- Relative retention time, standing time 3 [2]: 1.000
- Relative peak area, standing time 6 [2]: 1.000
- Relative retention time, standing time 6 [2]: 1.000
- Relative peak area, standing time 9 [2]: 1.000
- Relative retention time, standing time 9 [2]: 1.000
- Relative peak area, standing time 12 [2]: 1.000
- Relative retention time, standing time 12 [2]: 1.000

SMILES: CC/C=C\C/C=C\C/C=C\CCCCCCCC(=O)OC [Peak 5]
- Relative peak area, RSD (%) [2]: 1.57%
- Relative retention time, RSD (%) [2]: 0.04%
- Relative peak area, Mean [2]: 0.009
- Relative retention time, Mean [2]: 1.1834
- Relative peak area, standing time 0 [2]: 0.009
- Relative retention time, standing time 0 [2]: 1.184
- Relative peak area, standing time 3 [2]: 0.009
- Relative retention time, standing time 3 [2]: 1.184
- Relative peak area, standing time 6 [2]: 0.009
- Relative retention time, standing time 6 [2]: 1.184
- Relative peak area, standing time 9 [2]: 0.009
- Relative retention time, standing time 9 [2]: 1.183
- Relative peak area, standing time 12 [2]: 0.009
- Relative retention time, standing time 12 [2]: 1.183

SMILES: CN[C@@H](C)[C@H](O)c1ccccc1 [Ephedrine, ephedrine]
- Length of Sleep ([1]; Ephedrine 4 mg/kg alone ig 7 days): 60.8 ± 25.3 min

SMILES: O=P1(N(CCCl)CCCl)NCCCO1 (stereo not drawn) [Cyclophosphamide, cyclophosphamide]
- Micronucleus-Cell Rate ([3]; Female mice): 24.6 ± 6.3 ‰
- PCE/RBC ([3]; Female mice): 1.07 ± 0.13
- Number of Micronucleus-containing PCEs ([3]; Female mice): 123
- Micronucleus-Cell Rate ([3]; Male mice): 27.6 ± 10.4 ‰
- PCE/RBC ([3]; Male mice): 1.21 ± 0.14
- Number of Micronucleus-containing PCEs ([3]; Male mice): 138

SMILES: CCCCCCCCCCCCCCCCCCCC(=O)OC [Peak 8]
- Relative peak area, RSD (%) [2]: 1.16%
- Relative retention time, RSD (%) [2]: 0.03%
- Relative peak area, Mean [2]: 0.023
- Relative retention time, Mean [2]: 1.3064
- Relative peak area, standing time 0 [2]: 0.023
- Relative retention time, standing time 0 [2]: 1.307
- Relative peak area, standing time 3 [2]: 0.023
- Relative retention time, standing time 3 [2]: 1.307
- Relative peak area, standing time 6 [2]: 0.023
- Relative retention time, standing time 6 [2]: 1.306
- Relative peak area, standing time 9 [2]: 0.023
- Relative retention time, standing time 9 [2]: 1.306
- Relative peak area, standing time 12 [2]: 0.023
- Relative retention time, standing time 12 [2]: 1.306

SMILES: CO[C@@]12[C@H](COC(N)=O)C3=C(C(=O)C(C)=C(N)C3=O)N1C[C@@H]1N[C@@H]12 [Mitomycin C, mitomycin C]
- Abnormal Rate [4]: 5.88 ± 0.97 %
- Number of Aberrant Sperm: Amorphous ([4]; 5000 sperm tested): 119 n
- Number of Aberrant Sperm: Banana ([4]; 5000 sperm tested): 23 n
- Number of Aberrant Sperm: Big head ([4]; 5000 sperm tested): 5 n
- Number of Aberrant Sperm: Folded ([4]; 5000 sperm tested): 24 n
- Number of Aberrant Sperm: Hook-free ([4]; 5000 sperm tested): 113 n
- Number of Aberrant Sperm: Subtotal ([4]; 5000 sperm tested): 294 n
- Number of Aberrant Sperm: Two-head/two-tail ([4]; 5000 sperm tested): 10 n
